From publication PMC10499915 (Scientific Reports, 2023) come the findings set out here.

One series has as its system chymotrypsin. In words: chymotrypsin (Sigma–Aldrich), 1.25 µg of enzyme in 150 µl buffer; Tris·HCl 50 mM, pH 7.8. Particulars: 37 °C, up to 24 h.
Series [1] in a line: Hydrophobicity by RP-HPLC retention time. Particulars: for Retention time tR: used as measure of hydrophobicity, RP-HPLC, Phenomenex Luna C18 (100 Å, 5µ), linear gradient 5%B to 95%B over 30 min, A 0.1% TFA in 9:1 water:acetonitrile, B 0.1% TFA in 9:1 acetonitrile:water, 1 mL/min, peptide 0.5 mg/mL in MeOH, UV 215 and 280 nm; for Hydrophobicity ΔtR: ΔtR = tR(x)−tR(a), relative to compound a, RP-HPLC C18, 5%–95%B over 30 min. The class given is physicochemical. On the procedure: Peptide hydrophobicity was calculated as difference in retention times between peptide analogues b–h and peptide a. Each peptide was dissolved in MeOH to a concentration of 0.5 mg/mL and then subjected to RP-HPLC on an analytical Phenomenex Luna C18 (100 Å, 5µ) column using 0.1% TFA in 9:1 water:acetonitrile as solvent A, and 0.1% TFA in 9:1 acetonitrile:water as solvent B. The peptides were eluted using a linear gradient as follows: 5%B to 95%B over 30 min. The flow rate was 1 mL/min and the absorbance was measured at 215 nm and 280 nm. The retention time was recorded for each peptide.

In a further series the test system is E.coli ATCC 25922. Format: cell-based, Escherichia coli. Particulars: ATCC 25922, 18 h. On the procedure:
(§1) The bacterial strains used were Escherichia coli ATCC 25922, Staphylococcus aureus ATCC 25923, Klebsiella pneumoniae ATCC 700603, Acinetobacter baumannii ATCC 19606, Pseudomonas aeruginosa ATCC 27853 and Staphylococcus epidermidis ATCC 12228. The reference bacterial strains used were purchased from American Type Culture Collection (ATCC) (Manassas, Virginia, USA). They were grown overnight (o/n) at 37 °C in complete Müller-Hinton broth (MHB, Difco) medium with shaking (130 rpm). The day after, the overnight bacterial cultures were diluted in fresh MHB (300 μL o/n culture in 10 mL) and incubated at 37 °C with shaking (130 rpm) for approximately 2 h (mid-log phase) until reaching an optical density (OD) at 600 nm (OD600) ≈ 0.3.
(§2) Peptides diluted in MHB to a concentration of 128 μM were added to the first column of wells of a 96-well round-bottom microtiter plate (Sarstedt, Milan, Italy) and serially diluted (1:2) in a final volume of 50 μL MHB was added to the next wells. Then, a mid-log bacterial cultures (OD 600≈ 0.3) were diluted to 5 × 10^5 colony-forming units (CFU)/mL in MHB and 50 μL of this bacterial suspension was added to each well. In this way, the final bacterial concentration was reduced to 2.5 × 10^5 CFU/mL and the peptide concentration in the wells was also halved in a final volume of 100 μL (final bacteria load was 2.5 × 10^4 CFU/well). The same amount of untreated bacteria in MHB was used as a control for bacterial growth. […] MIC was determined by visual inspection at the end of incubation as the first clear well. Data are reported as moda of independent experiments repeated three times or four times in case of uncertain values.

Another series relates to S.aureus ATCC 25923. Format: cell-based, Staphylococcus aureus. On the procedure:
as §1, §2

Another series has as its system A.baumanni ATCC 19606. Format: cell-based, Acinetobacter baumannii. The settings on record: ATCC 19606, 18 h. As for the experimental part:
as §1, §2

In a further series the test system is K.pneumoniae ATCC 700603. Format: cell-based, Klebsiella pneumoniae. Particulars: ATCC 700603, 18 h. As for the experimental part:
as §1, §2

For the next series, the system named is P.aeruginosa ATCC 27853. The class given is cell-based, Pseudomonas aeruginosa. The settings on record: ATCC 27853, 18 h. As for the experimental part:
as §1, §2

A further series concerns S.epidermidis ATCC 12228. The class given is cell-based, Staphylococcus epidermidis. Particulars: ATCC 12228, 18 h. On the procedure: as §1, §2
The subject of series [2] is ram red blood cells (RBCs). Particulars: 4% v/v ram RBCs in PBS, 1 h, 37 °C, absorbance 540 nm, 100% = 1% Triton X-100; all concentrations tested; n = 3. On the procedure: The lytic potential towards eukaryotic cell membranes was assessed by measuring the release of haemoglobin from commercial ram red blood cells (RBCs) (Microbiol s.r.l., Cagliari, Italy) after exposure to the peptides. First, erythrocytes were isolated by centrifugation, washed with PBS and then suspended at 8% (v/v) in PBS. Secondly, 100 µL erythrocytes suspension was added into each well of a 96-well microplate. Then, 100 µL peptide solution was added to each well at different concentrations (the final concentration of erythrocytes suspension was 4% v/v), and the plates were incubated for 1 h at 37 °C and centrifuged at 1000 g for 10 min. Finally, 100 µL aliquots of supernatant were transferred to fresh 96-well microplate, and the release of haemoglobin was monitored by measuring the absorbance at 540 nm with Tecan microplate reader (Tecan Trading AG, Switzerland). 0% and 100% haemolysis were determined in PBS and 1% Triton X-100, respectively.

The test system of a further series is HaCaT cell line. Particulars: 24 h.
The conditions of series [3]: 4h and 24 h incubation, different concentrations.
Series [4] relates to E. coli, A. baumannii, K. pneumoniae, P. aeruginosa, and S. epidermidis strains. The class given is cell-based. Particulars: 18 h. On the procedure:
as §1, §2

In brackets after ≈: the same amount, converted by molar mass. Entries after “also recorded” stand apart in the source; their conditions may differ. Like-named read-outs stand apart in the source and are kept apart here. Square brackets hold non-standard residues; d marks the D form. Peptide text beside a SMILES is read from it. * marks the point of attachment. Lauroyl = CCCCCCCCCCCC(=O)*; Octanoyl = CCCCCCCC(=O)*; Aun = NCCCCCCCCCCC(=O)O Bounds are passed on as bounds.

Description for HaCaT cell line: Cytotoxicity was measured by the MTT assay on human immortalized epidermal keratinocyte HaCaT cell line (DKFZ, Eppelheim, Germany). The HaCaT cells were grown in high-glucose Dulbecco’s modified Eagle’s medium (DMEM) (Sigma-Aldrich, Milan, Italy). DMEM medium was supplemented with 10% foetal bovine serum (FBS; Sigma, Milan, Italy), 2 mM glutamine (Sigma, Milan, Italy), 100 U/mL penicillin (Sigma, Milan, Italy) and 100 µg/mL streptomycin (Sigma, Milan, Italy). The cells were maintained at 37 °C in the presence of 5% CO2 and in a humidified incubator.
Cells were counted in a Burker-Türk chamber to prepare a suspension of 2 × 10^5 cells/ml in DMEM High Glucose Complete Medium (Sigma-Aldrich, Milan, Italy). 100 μL of this suspension was added to the wells of a 96-well flat-bottom transparent microtiter plate (Euroclone, Milan, Italy) specially treated for tissue culture. The plate was incubated for 24 h at 37 °C and 5% CO2 to allow the cells in each well to reach a semiconfluent state. The following day, serial dilutions (1:2) of the peptides, starting with 64 μM, were prepared in DMEM medium, and 100 μL of these solutions were used to replace the medium in the plate with HaCaT cells. The same amount of untreated DMEM high-glucose medium was used as a cell growth control. DMEM high-glucose complete medium (100 μL) was used as a negative control to check the sterility of the medium. The plate was sealed with Parafilm to minimize evaporation and incubated at 37 °C and 5% CO2 for 20 h. Then, 25 μL MTT (Sigma-Aldrich, Milan, Italy) dissolved in phosphate-buffered saline (PBS) was added to each well to a final concentration of 1 mg/mL MTT, and the plate was incubated for 4 h in the dark at 37 °C and 5% CO2.
At the end of incubation, 100 μL 10% (w/v) Igepal (Sigma-Aldrich, Milan, Italy) in 10 mM HCl was added to each well, and the plate was incubated overnight in the dark at 37 °C and 5% CO2. The absorbance of MTT at 570 nm was measured using a Nanoquant Infinite-M200Pro plate reader (Tecan, Männedorf, Switzerland). Student’s t-test was performed for all samples.

As to Ac-KRLKKIGKVLKWI-NH2, the cleaved bond entry in the series with chymotrypsin is recorded as “Leu21-Lys22, first_seen, within a 30-min incubation”.
Turning to “Ac-KRLKKIGKVLKWIAKIVGSI[Aun]-NH2 (SMILES CC[C@H](C)[C@H](NC(=O)[C@H](CO)NC(=O)CNC(=O)[C@@H](NC(=O)[C@@H](NC(=O)[C@H](CCCCN)NC(=O)[C@H](C)NC(=O)[C@@H](NC(=O)[C@H](Cc1c[nH]c2ccccc12)NC(=O)[C@H](CCCCN)NC(=O)[C@H](CC(C)C)NC(=O)[C@@H](NC(=O)[C@H](CCCCN)NC(=O)CNC(=O)[C@@H](NC(=O)[C@H](CCCCN)NC(=O)[C@H](CCCCN)NC(=O)[C@H](CC(C)C)NC(=O)[C@H](CCCNC(=N)N)NC(=O)[C@H](CCCCN)NC(C)=O)[C@@H](C)CC)C(C)C)[C@@H](C)CC)[C@@H](C)CC)C(C)C)C(=O)NCCCCCCCCCCC(N)=O)”, the cleaved bond result in the series with chymotrypsin was “Leu21-Lys22, first_seen, within a 30-min incubation; also recorded: Trp23-Ile24, first_seen, within a 30-min incubation; also recorded: Leu14-Lys15, after longer incubation times”.
Same read-out and setting: as for Pal-KRLKKIGKVLKWIAKIVGSI-NH2, the entry is “Leu14-Lys15, after longer incubation times; also recorded: Leu21-Lys22, after longer incubation times; also recorded: Trp23-Ile24, after longer incubation times”; as for Ac-KRLKKIGKVLKWIAKIVGSI-NH2, “Leu21-Lys22, first_seen, within a 30-min incubation; also recorded: Leu14-Lys15, after longer incubation times; also recorded: Trp23-Ile24, after longer incubation times”.
The MIC is the lowest concentration that inhibits growth of the organism. A high value points to a need for much substance. Turning to `CCCCCCCC(=O)N[C@@H](CCCCN)C(=O)N[C@@H](CCCNC(=N)N)C(=O)N[C@@H](CC(C)C)C(=O)N[C@@H](CCCCN)C(=O)N[C@@H](CCCCN)C(=O)N[C@H](C(=O)NCC(=O)N[C@@H](CCCCN)C(=O)N[C@H](C(=O)N[C@@H](CC(C)C)C(=O)N[C@@H](CCCCN)C(=O)N[C@@H](Cc1c[nH]c2ccccc12)C(=O)N[C@H](C(=O)N[C@@H](C)C(=O)N[C@@H](CCCCN)C(=O)N[C@H](C(=O)N[C@H](C(=O)NCC(=O)N[C@@H](CO)C(=O)N[C@H](C(N)=O)[C@@H](C)CC)C(C)C)[C@@H](C)CC)[C@@H](C)CC)C(C)C)[C@@H](C)CC` [c] (Octanoyl-KRLKKIGKVLKWIAKIVGSI-NH2), the “Retention time tR” value in [1] is given as 22.3 min. Moreover, the “Hydrophobicity ΔtR” value in series [1] is 9.1. Besides, the MIC against E.coli ATCC 25922 is 16 µM (≈ 38.5 µg/mL); against S.aureus ATCC 25923 (ATCC 25923, 18 h), 16 µM (≈ 38.5 µg/mL); against A.baumanni ATCC 19606 it was 8 µM (≈ 19.2 µg/mL); against K.pneumoniae ATCC 700603, 16 µM (≈ 38.5 µg/mL); in the series on P.aeruginosa ATCC 27853, 32 µM (≈ 76.9 µg/mL); against S.epidermidis ATCC 12228 it was 8 µM (≈ 19.2 µg/mL). Moreover, in series [2], the “membranolytic (haemolytic) effect on erythrocytes” value (from here on “membranolytic (haemolytic) effect”) is “significant lytic effect”. Also, in the series on HaCaT cell line, the “HC50 (cytotoxicity on HaCaT cells)” value was under 32 µM. Further, in [3], the “solubility in Müller-Hinton broth” value is “low solubility”.
For Ac-KRLKKIGKVUKWI-NH2, the cleaved bond result with chymotrypsin is on record as “Leu14-Lys15, within a 30-min incubation; also recorded: Trp23-Ile24, after longer incubation times”.
Turning to Ac-KRLKKIGKVLKWIPPIVGSI-NH2, the cleaved bond entry with chymotrypsin is reported as “Leu21-Lys22, first_seen, within a 30-min incubation”.
Turning to Oct-KRLKKIGKVLKWIAKIVGSI-NH2, the cleaved bond entry in the series with chymotrypsin is on record as “Leu21-Lys22, first_seen, within a 30-min incubation; also recorded: Trp23-Ile24, first_seen, within a 30-min incubation; also recorded: Leu14-Lys15, within a 30-min incubation”.
For `CCCCCCCCCCCC(=O)N[C@@H](CCCCN)C(=O)N[C@@H](CCCNC(=N)N)C(=O)N[C@@H](CC(C)C)C(=O)N[C@@H](CCCCN)C(=O)N[C@@H](CCCCN)C(=O)N[C@H](C(=O)NCC(=O)N[C@@H](CCCCN)C(=O)N[C@H](C(=O)N[C@@H](CC(C)C)C(=O)N[C@@H](CCCCN)C(=O)N[C@@H](Cc1c[nH]c2ccccc12)C(=O)N[C@H](C(=O)N[C@@H](C)C(=O)N[C@@H](CCCCN)C(=O)N[C@H](C(=O)N[C@H](C(=O)NCC(=O)N[C@@H](CO)C(=O)N[C@H](C(N)=O)[C@@H](C)CC)C(C)C)[C@@H](C)CC)[C@@H](C)CC)C(C)C)[C@@H](C)CC` [d] (Lauroyl-KRLKKIGKVLKWIAKIVGSI-NH2), in [1], the “Retention time tR” value was 22.8 min. Further, the “Hydrophobicity ΔtR” value in series [1] was found to be 9.6. In addition, the MIC is over 32 µM against E.coli ATCC 25922; 32 µM (≈ 78.7 µg/mL) with S.aureus ATCC 25923 (ATCC 25923, 18 h); 16 µM (≈ 39.4 µg/mL) against A.baumanni ATCC 19606; 32 µM (≈ 78.7 µg/mL) against K.pneumoniae ATCC 700603; over 32 µM with P.aeruginosa ATCC 27853; 32 µM (≈ 78.7 µg/mL) in the series on S.epidermidis ATCC 12228. Moreover, the “membranolytic (haemolytic) effect” value in series [2] is on record as “significant lytic effect”. In addition, the “HC50 (cytotoxicity on HaCaT cells)” value in the series on HaCaT cell line is under 32 µM. Moreover, the “solubility in Müller-Hinton broth” value in series [3] is given as “low solubility”.
Regarding Ac-KRLKKIGKVLKWIPPIVGSI-NH2 [a], the “Retention time tR” value in series [1] is given as 13.2 min. Further, the “Hydrophobicity ΔtR” value in [1] amounted to 0. For the same molecule, the minimum inhibitory concentration (MIC) in the series with E.coli ATCC 25922 worked out at 2 µM; in the series with S.aureus ATCC 25923 (S.aureus ATCC 25923, Mueller–Hinton broth, 18 h, 37 °C, 2.5 × 10^5 CFU/mL, visual, mode of three independent tests), 64 µM; in the series with A.baumanni ATCC 19606, 1 µM; against K.pneumoniae ATCC 700603, 1 µM; against P.aeruginosa ATCC 27853, 4 µM; with S.epidermidis ATCC 12228, 2 µM. Besides, the “MIC, span over all tested bacterial strains except S. aureus” value in [4] was in the range of 1 to 4 µM.
As to `CC[C@H](C)[C@H](NC(=O)[C@H](CO)NC(=O)CNC(=O)[C@@H](NC(=O)[C@@H](NC(=O)[C@H](CCCCN)NC(=O)[C@H](C)NC(=O)[C@@H](NC(=O)[C@H](Cc1c[nH]c2ccccc12)NC(=O)[C@H](CCCCN)NC(=O)[C@H](CC(C)C)NC(=O)[C@@H](NC(=O)[C@H](CCCCN)NC(=O)CNC(=O)[C@@H](NC(=O)[C@H](CCCCN)NC(=O)[C@H](CCCCN)NC(=O)[C@H](CC(C)C)NC(=O)[C@H](CCCNC(=N)N)NC(=O)[C@H](CCCCN)NC(C)=O)[C@@H](C)CC)C(C)C)[C@@H](C)CC)[C@@H](C)CC)C(C)C)C(=O)NCCCCCCCCCCC(N)=O` [f] (Ac-KRLKKIGKVLKWIAKIVGSI[Aun]-NH2), the minimum inhibitory concentration (MIC) is 8 µM (≈ 20 µg/mL) against E.coli ATCC 25922; 8 µM (≈ 20 µg/mL) against S.aureus ATCC 25923 (ATCC 25923, 18 h); 4 µM (≈ 10 µg/mL) against A.baumanni ATCC 19606; 16 µM (≈ 40.1 µg/mL) against K.pneumoniae ATCC 700603; 16 µM (≈ 40.1 µg/mL) against P.aeruginosa ATCC 27853; 8 µM (≈ 20 µg/mL) in the series with S.epidermidis ATCC 12228. The “membranolytic (haemolytic) effect” value in [2] was “significant lytic effect”. Also, in the series with HaCaT cell line, the “HC50 (cytotoxicity on HaCaT cells)” value was under 32 µM.
In the case of Lau-KRLKKIGKVLKWIAKIVGSI-NH2, in the series with chymotrypsin, the cleaved bond entry was “Trp23-Ile24, after longer incubation times; also recorded: Leu21-Lys22, first_seen, within a 30-min incubation; also recorded: Leu14-Lys15, after longer incubation times”.
